Test results published in patent US20260209196A1, “AMIDINOUREA DERIVATIVES AND THEIR USE IN THE TREATMENT OF CANCER” (UNIVERSITE COTE D'AZUR, priority 2022, published 2026).

system: A375; test: Cell viability of A375 melanoma cells by Trypan Blue exclusion; assay type: cell-based; settings: Homo sapiens, A-375; 5 μM, 24 h; viable cells as mean percentage of control cells ± SEM, N=3; read-out: Viab A375 5 μM/24 h
Procedure: The BRAFV600E mutant melanoma line A375 (CRL-1619) was purchased from ATCC (Manassas, VA, USA). The A375 were maintained in glutamine-containing DMEM supplemented with 10% heat-inactivated fetal bovine serum, penicillin (100 units/ml) and streptomycin ([…]).
Cell viability was measured by the Trypan Blue exclusion method. Briefly, cells washed with PBS were harvested by a 3-minute incubation in 0.05% trypsin before neutralization with serum containing medium. An aliquot of the cell suspension was then mixed 1:1 with a 0.4% Trypan blue solution and viable cells were counted within 5 minutes on Kova slides under an optical microscope. Results are expressed as the mean percentage of control cells±SEM. N=3

Compared with `Cc1ccccc1NC(O)NC(=N)Nc1nc(-c2cccc([N+](=O)[O-])c2)cs1` (centres unmarked) [MTF515, N-4-(3-nitrophenyl) thiazol-2-yl-N″-(2-methylaniline-carbonyl)-guanidine], `Cc1cccc(NC(=O)NC(=N)Nc2nc(-c3cccc([N+](=O)[O-])c3)cs2)c1` [MTF431, N-4-(3-nitrophenyl) thiazol-2-yl-N″-(3-methylaniline-carbonyl)-guanidine] is higher in viability at 5 µM: 64.9% for the first, 95.4% for the second.

First: Cc1nc(NC(=N)NC(=O)Nc2cccc(Cl)c2)sc1C [MTF506, 4,5-dimethylthiazol-2-yl-N″-(3-chloroaniline-carbonyl)-guanidine]
Second: COc1cccc(NC(=O)NC(=N)Nc2nc(C)c(C)s2)c1 [MTF511, 4,5-dimethylthiazol-2-yl-N″-(3-methoxyaniline-carbonyl)-guanidine]
The viability at 5 µM of the first is lower: 64.3% for the first, 92.1% for the second.

First: Cc1ccccc1NC(=O)NC(=N)Nc1nc(C)c(C)s1 [MTF509, 4,5-dimethylthiazol-2-yl-N″-(2-methylaniline-carbonyl)-guanidine]
Second: Cc1ccccc1NC(=O)NC(=N)Nc1nc2ccccc2s1 [MTF495, N-benzo[d]thiazol-2-yl-N″-(2-methylaniline-carbonyl)-guanidine]
The viability at 5 µM of the first is lower: 23% for the first, 38.6% for the second.

Going from `N=C(NC(=O)Nc1ccccc1)Nc1nc2ccccc2s1` [MTF314, N—(N-(benzo[d]thiazol-2-yl)carbamimidoyl)-anilinocarboxamide] to `N=C(NC(=O)Nc1cccc2ccccc12)Nc1nc2ccccc2s1` [MTF418, N-benzo[d]thiazol-2-yl-N″-(naphtalen-1-amine-carbonyl)-guanidine], the viability at 5 µM falls from 53.5% to 16.5%.

same assay, conditions: Homo sapiens, A-375; 5 μM, 48 h; viable cells as mean percentage of control cells ± SEM, N=3; read-out: Viab A375 5 μM/48 h

Compared with `Cc1ccccc1NC(O)NC(=N)Nc1nc(-c2cccc([N+](=O)[O-])c2)cs1` (centres unmarked) [MTF515, N-4-(3-nitrophenyl) thiazol-2-yl-N″-(2-methylaniline-carbonyl)-guanidine], `Cc1cccc(NC(=O)NC(=N)Nc2nc(-c3cccc([N+](=O)[O-])c3)cs2)c1` [MTF431, N-4-(3-nitrophenyl) thiazol-2-yl-N″-(3-methylaniline-carbonyl)-guanidine] is higher in viability at 5 µM: 28.7% for the first, 41.6% for the second.

First: Cc1nc(NC(=N)NC(=O)Nc2cccc(Cl)c2)sc1C [MTF506, 4,5-dimethylthiazol-2-yl-N″-(3-chloroaniline-carbonyl)-guanidine]
Second: COc1cccc(NC(=O)NC(=N)Nc2nc(C)c(C)s2)c1 [MTF511, 4,5-dimethylthiazol-2-yl-N″-(3-methoxyaniline-carbonyl)-guanidine]
The viability at 5 µM of the first is lower: 54.5% for the first, 82.8% for the second.

Going from `Cc1ccccc1NC(=O)NC(=N)Nc1nc(C)c(C)s1` [MTF509, 4,5-dimethylthiazol-2-yl-N″-(2-methylaniline-carbonyl)-guanidine] to `Cc1ccccc1NC(=O)NC(=N)Nc1nc2ccccc2s1` [MTF495, N-benzo[d]thiazol-2-yl-N″-(2-methylaniline-carbonyl)-guanidine], the viability at 5 µM falls from 13.6% to 8%.

First: N=C(NC(=O)Nc1ccccc1)Nc1nc2ccccc2s1 [MTF314, N—(N-(benzo[d]thiazol-2-yl)carbamimidoyl)-anilinocarboxamide]
Second: N=C(NC(=O)Nc1cccc2ccccc12)Nc1nc2ccccc2s1 [MTF418, N-benzo[d]thiazol-2-yl-N″-(naphtalen-1-amine-carbonyl)-guanidine]
The viability at 5 µM of the first is lower: 12.3% for the first, 16.7% for the second.

same assay, conditions: Homo sapiens, A-375; 10 μM, 24 h; viable cells as mean percentage of control cells ± SEM, N=3; read-out: Viab A375 10 μM/24 h

Compared with `N=C(NC(=O)Nc1ccccc1)Nc1nc2ccccc2s1` [MTF314, N—(N-(benzo[d]thiazol-2-yl)carbamimidoyl)-anilinocarboxamide], `N=C(NC(=O)Nc1cccc2ccccc12)Nc1nc2ccccc2s1` [MTF418, N-benzo[d]thiazol-2-yl-N″-(naphtalen-1-amine-carbonyl)-guanidine] is higher in viability at 10 µM: 32.7% for the first, 41% for the second.

same assay, conditions: Homo sapiens, A-375; 10 μM, 48 h; viable cells as mean percentage of control cells ± SEM, N=3; read-out: Viab A375 10 μM/48 h

Going from `N=C(NC(=O)Nc1ccccc1)Nc1nc2ccccc2s1` [MTF314, N—(N-(benzo[d]thiazol-2-yl)carbamimidoyl)-anilinocarboxamide] to `N=C(NC(=O)Nc1cccc2ccccc12)Nc1nc2ccccc2s1` [MTF418, N-benzo[d]thiazol-2-yl-N″-(naphtalen-1-amine-carbonyl)-guanidine], the viability at 10 µM falls from 7.6% to 4.6%.

system: NCI 60 cell panel; test: DTP-NCI assay (NCI 60 cell screen, single high dose); assay type: cell-based; settings: Homo sapiens, 48 h; single high dose 10^-5 M, full NCI 60 cell panel; growth relative to no-drug control and to time zero number of cells; read-out: DTP-NCI (mean of the percent growth of treated cells)
Procedure: The effect of 10 μM of MTF504 was monitored on a panel 60 cell lines representing nine distinct tumour types: leukemia, colon, lung, central nervous system, renal, melanoma, ovarian, breast and prostate. Briefly, the compound was sent to the US National Cancer Institute where its antineoplastic effects were monitored on the panel of cell lines after 48 hours of treatment following a standardized protocol.
All compounds submitted to the NCI 60 Cell screen are tested initially at a single high dose (10^-5 M) in the full NCI 60 cell panel. The results are reported as a mean of the percent growth of treated cells. The number reported is growth relative to the no-drug control, and relative to the time zero number of cells. This allows detection of […].

First: Cc1ccc(Cl)cc1NC(=O)NC(=N)Nc1nc2ccccc2s1 [MTF656, N-benzo[d]thiazol-2-yl-N″-(2-methyl-5-chloroaniline-carbonyl)-guanidine]
Second: N=C(NC(=O)Nc1ccc(Cl)cc1Cl)Nc1nc2ccccc2s1 [MTF649, N-benzo[d]thiazol-2-yl-N″-(2,4-dichloroaniline-carbonyl)-guanidine]
The activity at 10 µM of the first is higher: -19.4% for the first, -58.2% for the second.

Going from `CCOc1ccccc1NC(=O)NC(=N)Nc1nc2ccccc2s1` [MTF652, N-benzo[d]thiazol-2-yl-N″-(2-ethoxyaniline-carbonyl)-guanidine] to `CCc1ccccc1NC(=O)NC(=N)Nc1nc2ccccc2s1` [MTF653, N-benzo[d]thiazol-2-yl-N″-(2-ethylaniline-carbonyl)-guanidine], the activity at 10 µM falls from 12.6% to 0.27%.

Going from `N=C(NC(=O)Nc1ccccc1F)Nc1nc2ccccc2s1` [MTF654, N-benzo[d]thiazol-2-yl-N″-(2-fluoroaniline-carbonyl)-guanidine] to `N=C(NC(=O)Nc1ccccc1Br)Nc1nc2ccccc2s1` [MTF651, N-benzo[d]thiazol-2-yl-N″-(2-bromoaniline-carbonyl)-guanidine], the activity at 10 µM falls from 20.3% to -17.8%.

Compared with `N=C(NC(=O)Nc1ccccc1Cl)Nc1nc2ccc([N+](=O)[O-])cc2s1` [MTF657, N-6-nitrobenzo[d]thiazol-2-yl-N″-(2-chloroaniline-carbonyl)-guanidine], `N=C(NC(=O)Nc1ccccc1[N+](=O)[O-])Nc1nc2ccccc2s1` [MTF655, N-benzo[d]thiazol-2-yl-N″-(2-nitroaniline-carbonyl)-guanidine] is lower in activity at 10 µM: 31.2% for the first, 11.6% for the second.

Going from `N=C(NC(=O)Nc1c(Cl)cccc1Cl)Nc1nc2ccccc2s1` [MTF650, N-benzo[d]thiazol-2-yl-N″-(2,6-dichloroaniline-carbonyl)-guanidine] to `Cc1ccccc1NC(=O)NC(=N)Nc1nc2ccccc2s1` [MTF495, N-benzo[d]thiazol-2-yl-N″-(2-methylaniline-carbonyl)-guanidine], the activity at 10 µM falls from 36.4% to 25.9%.

First: Cc1ccccc1NC(O)NC(=N)Nc1nc(-c2cccc([N+](=O)[O-])c2)cs1 (centres unmarked) [MTF515, N-4-(3-nitrophenyl) thiazol-2-yl-N″-(2-methylaniline-carbonyl)-guanidine]
Second: N=C(NC(=O)Nc1cccc2ccccc12)Nc1nc2ccccc2s1 [MTF418, N-benzo[d]thiazol-2-yl-N″-(naphtalen-1-amine-carbonyl)-guanidine]
The activity at 10 µM of the first is higher: 37.7% for the first, 26.1% for the second.

Compared with `Cc1nc(NC(=N)NC(=O)Nc2cccc(Cl)c2)sc1C` [MTF506, 4,5-dimethylthiazol-2-yl-N″-(3-chloroaniline-carbonyl)-guanidine], `Cc1ccccc1NC(=O)NC(=N)Nc1nc(C)c(C)s1` [MTF509, 4,5-dimethylthiazol-2-yl-N″-(2-methylaniline-carbonyl)-guanidine] is lower in activity at 10 µM: 67.7% for the first, 29.3% for the second.

Molecule `N=C(NC(=O)Nc1ccccc1)Nc1nc2ccccc2s1` [MTF314, N—(N-(benzo[d]thiazol-2-yl)carbamimidoyl)-anilinocarboxamide] has an activity at 10 µM of 37.4%.
